# Calls of active or inactive are those of the source.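 The calls were made as follows: active = IC50 at or below a set limit; inactive = the rest.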
# Test system: HL-1 cardiomyocytes, 2-deoxyglucose injury, ATPLite luminescence, 2 h
# Assay: 2-DG-induced HL-1 ATP loss suppression – cell-based, ATPLite luminescence, dose response (AID 602217);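 also: cells kept in glucose-free DMEM during the 2-deoxyglucose injury; potency of protection where actives preserve ATP signal against 2-deoxyglucose stress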
row,SMILES,IC50
1,C=CCOC(=O)C1=C[C@H](c2cn(C(C)=O)c3ccccc23)C[C@H](OCc2ccc(CO)cc2)O1,> 79 µM (inactive)
2,COc1cc(-c2cc(NC(C)=O)c3ncc(-c4ccc(C(C)=O)cc4)n3c2)cc(OC)c1OC,> 79 µM (inactive)
3,COc1ccc(-c2cc(NC=O)c3ncc(-c4ccc(C(C)=O)cc4)n3c2)cn1,22.2 µM (inactive)
4,COc1cccc(CN(C)C(=O)C(Cc2ccccc2)NC(=O)c2ccccc2)c1OC (stereo not given),> 79 µM (inactive)
5,NC(=O)COc1ccc2oc(=O)cc(-c3cc4ccccc4o3)c2c1,> 79 µM (inactive)
6,C[C@H](NC(=O)c1nc[nH]c1C(=O)NCC(=O)OCc1ccccc1)c1ccccc1,> 79 µM (inactive)
7,COc1ccc(-c2nn(-c3ccccc3)cc2C(=O)Nc2nccs2)cc1,53.5 µM (inactive)
8,CC(C)=NNc1cnnc2ccc([N+](=O)[O-])cc12,> 79 µM (inactive)
9,CC(C)(C)OC(=O)CNC(=O)c1[nH]cnc1C(=O)NCC(=O)OCc1ccccc1,21.7 µM (inactive)
10,COc1ccc(-c2cnc3c(NC=O)cc(-c4cccc(NS(C)(=O)=O)c4)cn23)cc1OC,33.5 µM (inactive)
11,CCOc1cc(/C=C(\C#N)C(=O)Nc2ccc(S(N)(=O)=O)cc2)ccc1OCCN1CCOCC1,> 79 µM (inactive)
12,CCOC(=O)C1CCN(c2cc3c(cc2NC(=O)c2ccc(OC)c(OC)c2)n(C)c(=O)n3C)CC1,> 79 µM (inactive)
13,COC(=O)c1cc2ccccn2c2c(C(=O)OC)c(C(=O)OC)cc1-2,> 79 µM (inactive)
14,COc1ccc(-c2csc(NC(=O)c3cccc(N4C(=O)CCC4=O)c3)n2)cc1OC,29.9 µM (inactive)
15,CCOc1ncccc1C(=O)Nc1cccc(-c2nc3cccnc3s2)c1,> 79 µM (inactive)
16,NC(=O)c1nsc(C(=O)N(c2ccccc2F)C(C(=O)NCc2ccc(F)cc2)c2ccc(O)cc2)c1N (stereo not given),9.17 µM
17,COc1cc2[nH]c(=O)n3nc(-c4ccccc4)nc3c2cc1OC,35.3 µM (inactive)
18,Cc1ccc(-c2csc(N3CCC[C@@H]3C(=O)NCCn3c(-c4ccncc4)nc4ccccc43)n2)cc1,> 79 µM (inactive)

row,SMILES,IC50
1,Fc1ccc(-n2cc(-c3ccccc3)c3c(N4CCOCC4)ncnc32)cc1,8.35 µM
2,Cc1[nH]c2ccccc2c1/C=N/NC(=O)c1cc(-c2cccs2)[nH]n1,> 79 µM (inactive)
3,COc1ccc(COc2cc(-c3cccc(OC)c3)nc3ccc(NC(=O)c4cccnc4)cc23)cc1,5.96 µM
4,COc1cc(OC)cc(-c2cc3nc(C)c(CCC(=O)Nc4nc(C)cs4)c(C)n3n2)c1,> 79 µM (inactive)
5,NC(=O)c1nsc(C(=O)N(c2ccccc2)C(C(=O)NC2CCCC2)c2ccc3ncccc3c2)c1N (stereo not given),13.2 µM
6,CCOc1ccccc1NC(=O)c1oc2ccccc2c1NC(=O)C1CCCO1 (stereo not given),> 79 µM (inactive)
7,CNC(=O)COC(=O)/C=C/c1cn(-c2ccccc2)nc1-c1ccc(C)o1,> 79 µM (inactive)
8,CC1(c2ccccc2)NC(=O)N(CC(=O)Nc2cccc(/C=C/c3ccccn3)c2)C1=O (stereo not given),> 79 µM (inactive)
9,CC(=O)c1cccc(-c2cnc3c(NC=O)cc(-c4ccccc4F)cn23)c1,> 79 µM (inactive)
10,COc1cc(-c2cc(C(=O)Nc3cccc(C(C)=O)c3)c3ccccc3n2)cc(OC)c1OC,9.9 µM
11,COc1ccc(-c2cc(C(=O)Nc3ccccc3N3CCOCC3)c3ccccc3n2)cc1OC,> 79 µM (inactive)
12,COc1ccc(Nc2nnc(SCc3cc(=O)n4ccsc4n3)s2)cc1,0.26 µM
13,O=C(C(=O)N(Cc1ccccc1)Cc1ccccc1)c1c(-c2ccccc2)[nH]c2ccccc12,4.8 µM
14,CS(=O)(=O)c1ccc(-c2cnc3c(NC=O)cc(-c4ccsc4)cn23)cc1,> 79 µM (inactive)
15,CCOC(=O)c1c(C)[nH]c(C)c1C(=O)COc1ncnc2cc([N+](=O)[O-])ccc12,> 79 µM (inactive)
16,O=C(Nc1cc(S(=O)(=O)N2CCOCC2)ccc1N1CCCCC1)c1cc(-c2ccccn2)nc2ccccc12,21 µM (inactive)
17,N#C/C(=C\Nc1ccc2c(c1)OCCO2)c1nc2ccccc2[nH]1,> 79 µM (inactive)

# Reference: PubChem BioAssay AID602217 (Sanford-Burnham Center for Chemical Genomics, 2012)
